Laboratory results published in patent US20130331347A1, “Treatment of Clostridium Difficile Infection in Patients Undergoing Antibiotic Therapy” (Optimer Pharmaceuticals, Inc., priority 2010, published 2013).

System: Clostridium difficile infection (CDI)
Assay: Concomitant antibiotics (CAs) during CDI treatment: PO fidaxomicin vs PO vancomycin, clinical outcome review
Type: in vivo, human
Conditions: for Global Cure (clinical cure with no recurrence) / Clinical Cure / Recurrence: per protocol (PP); for Clinical Cure: 10 days of study drug; for Recurrence: CDI recurrence during 4-wk follow-up
Protocol: Administration of concomitant antibiotics (CAs) to subjects during the 10 days of study drug administration (PO Fidaxomicin (FDX 200 mg BID)) vs. (PO Vancomycin (Vanc 125 mg QID)) through 4-wk follow-up period was reviewed. End points were the effect of CAs on clinical cure, CDI recurrence during 4-wk follow-up, and global cure (clinical cure with no recurrence).

[1] = in those who received CAs, in words

SMILES: CCc1c(Cl)c(O)c(Cl)c(O)c1C(=O)O[C@H]1[C@H](O)[C@H](OC)[C@H](OC/C2=C\C=C\C[C@H](O)/C(C)=C/[C@H](CC)[C@@H](O[C@@H]3OC(C)(C)[C@@H](OC(=O)C(C)C)[C@H](O)[C@@H]3O)/C(C)=C/C(C)=C/C[C@@H]([C@@H](C)O)OC2=O)O[C@@H]1C [FDX, fidaxomicin]
- Global Cure (clinical cure with no recurrence) (CA (concomitant antibiotics)): 72%
- Clinical Cure (CA (concomitant antibiotics)): 87%
- Recurrence (CA (concomitant antibiotics)): 23%
- Global Cure (clinical cure with no recurrence) (No CA): 79%
- Clinical Cure (No CA): 93%
- Recurrence (No CA): 11%
- CDI recurrences compared to Vanc [1]: lower
- global cures compared to Vanc [1]: significantly improved

SMILES: CN[C@H](CC(C)C)C(=O)N[C@H]1C(=O)N[C@@H](CC(N)=O)C(=O)N[C@H]2C(=O)N[C@H]3C(=O)N[C@H](C(=O)N[C@H](C(=O)O)c4cc(O)cc(O)c4-c4cc3ccc4O)[C@H](O)c3ccc(c(Cl)c3)Oc3cc2cc(c3O[C@@H]2O[C@H](CO)[C@@H](O)[C@H](O)[C@H]2O[C@H]2C[C@](C)(N)[C@H](O)[C@H](C)O2)Oc2ccc(cc2Cl)[C@H]1O [Vanc, Vancomycin, reference compound]
- Global Cure (clinical cure with no recurrence) (CA (concomitant antibiotics)): 50%
- Clinical Cure (CA (concomitant antibiotics)): 77%
- Recurrence (CA (concomitant antibiotics)): 40%
- Global Cure (clinical cure with no recurrence) (No CA): 72%
- Clinical Cure (No CA): 94%
- Recurrence (No CA): 18%
